Where two headings read alike, the source gives them in different places.
Experiments:
[1] = tested on: streptozotocin-induced diabetic rats; test: Sucrose-challenged streptozotocin-induced diabetic rats (STZ-S), antihyperglycemic activity; type: in vivo, rat (Sprague Dawley); conditions: 100 mg/kg oral, sucrose load 2.5 g/kg, AUC vs control
Description: Male albino rats of Sprague Dawley strain of body weight […] were selected for this study. Streptozotocin (Sigma, USA) was dissolved in 100 mM citrate buffer pH 4.5 and calculated amount of the fresh solution was injected to overnight fasted rats (45 mg/kg) intraperitoneally. Blood glucose level was checked 48 h later by glucostrips and animals showing blood glucose values between 144 to 270 mg/dl (8 to 15 mM) were included in the experiment and termed diabetic. The diabetic animals were divided into groups consisting of five to six animals in each group. Animals of experimental groups were administered suspension of the desired test samples orally (made in 1.0% gum acacia) at a dose of 100-mg/kg-body weight. Animals of control group were given an equal amount of 1.0% gum acacia. A sucrose load of 2.5-g/kg body weight was given after 30 minutes of compound administration. After 30 minutes of post sucrose load blood glucose level was again checked by glucostrips at 30, 60, 90, 120, 180, 240, 300 min and at 24 h, respectively. Animals not found diabetic after 24 hours post treatment of the test sample were not considered and omitted from the calculations and termed as non-responders. […] Food but not water was withheld from the cages during the experimentation. Comparing the AUC of experimental and control groups determined the percent antihyperglycemic activity. Statistical comparison between groups was made by Student's ‘t’ test.

[2] = tested on: triton WR-1339 induced hyperlipidemic rats; test: Triton model, antidyslipidemic activity; type: in vivo, rat (Charles foster); conditions: Rattus norvegicus, 100 mg/kg oral
Description: Male Charles foster rats weighing 200-225 g were divided into control, hyperlipidemic and hyperlipidemic plus drug treated groups containing six animals in each group. Hyperlipidemia was induced by administration of triton WR-1339 (200 mg/kg i.p.). All animals were maintained on a special pellet diet and water ad libitum. Compounds and standard drug were macerated with 0.2% aqueous gum acacia suspension. The suspension was fed orally at the dose of 100 mg/kg simultaneously with triton in drug treated group. The animals of control group received the same amount of gum acacia by similar route of administration. At the end of the experiment, after 18 h, blood was withdrawn from retro orbital plexus and plasma was used for the assay of total cholesterol, phospholipid and triglycerides.
Cholesterol was estimated using the kit provided by Roche Diagnostics. Cholesterol esters are enzymatically hydrolyzed by cholesterol esterase (CE) to cholesterol and free fatty acids. Free cholesterol, including that originally present, is then oxidized by cholesterol oxidase (CO) to cholest-4-en-3-one and hydrogen peroxide. The hydrogen peroxide combines with hydroxy benzoic acid (HBA) and 4-aminoantipyrine (4AAA) in the presence of peroxidase (POD) to form a chromophore (quinoneimine dye), which may be quantitated at 500-505 nm. The intensity of red colour formed is directly proportional to the concentration of total cholesterol in the specimen and measured spectrophotometrically (Searcy, C. L. Diagnostic Biochemistry, 1969, McGraw Hill, New York; Ellefson, R. D.; Caraway, W. T. Fundamentals of clinical chemistry, 1976, Ed Tietz N W, 506-515.)
Triglycerides were estimated using the kit provided by Roche Diagnostics. Lipoprotein lipase hydrolyses triglycerides to yield glycerol and fatty acids. Glycerol kinase converts glycerol to glycerol-3-phosphate, which is oxidized by glycerol phosphate oxidase to dihydroxy acetone phosphate and hydrogen peroxide. In the presence of peroxidase, hydrogen peroxide oxidatively couples with 4-aminoantipyrine and 4-chloro phenol to produce red quinonimine dye. The intensity of red colour formed is directly proportional to the concentration of triglycerides in the specimen and is measured by photometrically (Wahlefeld, A. W.; Bergmeyer, H. U. Ed. Methods of enzymatic analysis, 2nd English edition, New York, N.Y., Academic press inc, 1831-1840.).
Serum (0.2 mL) and perchloric acid (1.0 mL) was digested at 180° C. for 1-1.5 h till the solution became colorless. The liberated inorganic phosphate (Pi) was measured by the method of Fiske and Subbarow (Fiske, C. H.; Subbarow, V. J. Biol. Chem. 1925, 66, 375.). 1 mL of 2.5% ammonium molybdate (prepared in 5 N sulphuric acid) and 0.5 mL reducing agent (4-amino naphthol sulphonic acid, 0.2%), sodium metabisulphite (2.4% w/v in distilled water) was added to the above tubes and mixed well. The reaction mixture was […] with 2.5 mL of triple distilled water and kept at 60° C. in water bath for 20 min. For standard, an appropriate amount of potassium dihydrogen phosphate dissolved in triple distilled water containing 2-10 μg phosphorus (Pi) was run simultaneously with the experiment tubes. The optical density of the blue colour was recorded at 620 nm against reagent blank. The values of Pi were converted into phospholipid by multiplying with 25 (a constant calibrated from Pi value of lecithin).

[3] = tested on: sucrose loaded rats; test: Sucrose loaded rat model (SLM), antihyperglycemic activity; type: in vivo, rat (Charles Foster/Wistar); conditions: Rattus norvegicus, 2 h; 100 mg/kg oral; sucrose load 10.0 g/kg; AUC vs control, 30-120 min; read-out: % Fall in blood glucose levels SLM
Description: Male albino rats of Charles Foster/Wistar strain of average body weight 160±20 g were selected for this study. The blood glucose level of each animal was checked by glucometer using glucostrips (Boehringer Mannheim) after 16 h starvation. Animals showing blood glucose levels between 3.33 to 4.44 mM (60 to 80 mg/dl) were divided into groups of five to six animals in each. Animals of experimental group were administered suspension of the desired synthetic compound orally (made in 1.0% gum acacia) at a dose of 100-mg/kg-body weight. Animals of control group were given an equal amount of 1.0% gum acacia. A sucrose load (10.0 g/kg) was given to each animal orally exactly after 30 min post administration of the test sample/vehicle. Blood glucose profile of each rat was again determined at 30, 60, 90 and 120 min post administration of sucrose by glucometer. Food but not water was withheld from the cages during the course of experimentation. Quantitative glucose tolerance of each animal was calculated by Area Under Curve (AUC) method (Prism Software). Comparing the AUC of experimental and control groups determined the percentage antihyperglycemic activity. Statistical comparison was made by Dunnett's test.

[4] = plasma phospholipid after 18 h, read-out: % Fall in lipid levels (Triton model) PL
[5] = plasma total cholesterol after 18 h, read-out: % Fall in lipid levels (Triton model) TC
[6] = plasma triglycerides after 18 h, read-out: % Fall in lipid levels (Triton model) TG

Row | Structure (SMILES) | % Fall in blood glucose levels STZ-S 24 h [1] | melting point | inhibition in vivo at 100 mg/kg [2, 4] | inhibition in vivo at 100 mg/kg [2, 5] | inhibition in vivo at 100 mg/kg [2, 6] | inhibition in vivo at 100 mg/kg [3] | % Fall in blood glucose levels STZ-S 5 h [1]
1 | COc1ccc(/C=C/C(=O)c2cccc(OCC(O)CNC(C)(C)C)c2)cc1 (stereo not shown) [Compound 30, 3′-[3-tert-Butylamino-2-hydroxy-propoxy]-4-methoxy-chalcone] | 11.3% | 83 to 84 °C | 25% | 27% | 30% | 20% | 
2 | COc1ccc(/C=C/C(=O)c2ccc(OCC(O)CN3CCN(c4ccccc4)CC3)cc2)cc1 (stereo not shown) [Compound 20, 4′-[2-Hydroxy-3-(4-phenylpiperazin-1-yl)-propoxy]-4-methoxy-chalcone] | NIL | 165 to 167 °C | 11% | 11% | 10% | 7.78% | NIL
3 | CCCCNCC(O)COc1ccc(C(=O)/C=C/c2ccc(OC)cc2)cc1 (stereo not shown) [Compound 27, 4′-[3-n-Butylamino-2-hydroxy-propoxy]-4-methoxy-chalcone] | NIL | 163 to 164 °C | 22% | 25% | 20% | 38% | NIL
4 | COc1ccc(/C=C/C(=O)c2ccc(OCC(O)CNC(C)(C)C)cc2)cc1OC (stereo not shown) [Compound 19, 4′-[3-tert-Butylamino-2-hydroxy-propoxy]-3,4-dimethoxy-chalcone] | NIL | 62 to 64 °C | 22% | 21% | 19% | 11.2% | NIL
5 | COc1ccc(/C=C/C(=O)c2ccccc2OCC(O)CNC(C)C)cc1 (stereo not shown) [Compound 32, 2′-[2-Hydroxy-3-iso-propylamino-propoxy]-4-methoxy-chalcone] | 2.77% | 88 to 89 °C | 15% | 22% | 29% | 47% | 
6 | COc1ccc(/C=C/C(=O)c2ccc(OCC(O)CN3CCN(c4ccccc4OC)CC3)cc2)cc1 (stereo not shown) [Compound 24, 4′-[2-Hydroxy-3-{4-(2-methoxyphenyl)-piperazin-1-yl}-propoxy]-4-methoxy-chalcone] | 6.18% | 97 to 98 °C | 15% | 24% | 14% | 10.8% | 
7 | COc1ccc(/C=C/C(=O)c2ccc(OCC(O)CNC(C)(C)C)cc2)cc1 (stereo not shown) [Compound 22, 4′-[3-tert-Butylamino-2-hydroxy-propoxy]-4-methoxy-chalcone] | NIL | 70 to 71 °C | 11% | 16% | 21% | 11.8% | NIL
8 | COc1ccc(/C=C/C(=O)c2cccc(OCC(O)CNC(C)C)c2)cc1 (stereo not shown) [Compound 29, 3′-[2-Hydroxy-3-iso-propylamino-propoxy]-4-methoxy-chalcone] | NIL | 102 to 103 °C | 27% | 33% | 27% | 6.85% | NIL
9 | CC(C)CNCC(O)COc1ccc(C(=O)/C=C/c2ccc3c(c2)OCO3)cc1 (stereo not shown) [Compound 35, 4′-[3-iso-Butylamino-2-hydroxy-propoxy]-3,4-methylenedioxy-chalcone] | 11.6% | 122 to 123 °C | 9% | 13% | 13% | 23.8% | 
10 | CCCCNCC(O)COc1ccccc1C(=O)/C=C/c1ccc(OC)cc1 (stereo not shown) [Compound 31, 2′-[3-n-Butylamino-2-hydroxy-propoxy]-4-methoxy-chalcone] | NIL | 106 to 107 °C | 3% |  |  | 33.1% | NIL
